Source: patent US7462733B2, “Preparation and use of α-keto phosphonates” (University of Southern California, priority 2001, dated 2008)

Experiment: pH dependence of ketone-hydrate equilibrium (31P NMR, absorbance 420 nm)
Assay type: physicochemical
From the text: The ketone 13a and hydrate forms 13b are simultaneously detectable by ^31P, and also via the visible absorbance (420 nm) of the ketone chromophore (yellow). At low pH, the hydrate form 13b predominates, the phosphorus NMR peak shifting from −2 to 15 ppm. The reaction is reversible, the ketone reforming as the pH is increased. The pH at which 50% of the ketone is transferred to its hydrate form (‘pK’) is 2.2 (rt, 10^−7M in D2O). This unequivocally coincides with the protonation of the phosphonate function. Upon addition of MgCl2, the apparent ‘pK’ of the equilibrium shifts by nearly 2 pH units towards left to reach 4.2 (FIG. 4).
We, report here synthesis and characterization of the first example of a new class of nucleotide analog, in which the α,β-phosphoric anhydride oxygen of the 5′-diphosphate moiety is replaced by a reactive carbonyl group: the carbonylbisphosphonate analog of 3′-azido-3′desoxythymidine 5′-diphosphate, 13. The structures of 13 and its diazomethylenebisphosphonate precursor 12 were confirmed by ^1H, ^13C and ^31P NMR, and high-resolution mass spectrometry. The ketone and hydrate forms of 13 are simultaneously detectable by ^31P, and also via the visible absorbance (420 nm) of the ketone chromophore. At low pH, the hydrate form predominates, the phosphorus NMR peak shifting from −2 to 15 ppm. The reaction is reversible, the ketone reforming as the pH is increased. Addition of Mg^2+ shifts the ‘pK’ of the equilibrium by nearly 2 pH units. (See FIG. 4).

shift of the 'pK' of the equilibrium on addition of Mg2+ (addition of MgCl2 / Mg^2+): ~2 pH units | pH at which 50% of the ketone is transferred to its hydrate form ('pK') (rt, 10^−7M in D2O, no Mg): 2.2 | apparent 'pK' of the ketone-hydrate equilibrium (upon addition of MgCl2): 4.2
SMILES: Cc1cn([C@H]2C[C@H](N=[N+]=[N-])[C@@H](COP(=O)(O)C(=O)P(=O)(O)O)O2)c(=O)[nH]c1=O [Compound 13a, 3′-Azido-3′-Deoxythymidine 5′-Carbonylbisphosphonate]
